Measurements reported in the NIST ThermoML archive (doi:10.1021/je020131a).
± gives the expanded uncertainty stated by the source.

Assays:
[1] = Liquid; for viscosity: 101.3 kPa, Falling or rolling sphere viscometry; for mass density: 101.33 kPa, Vibrating tube method
[2] = xn = mol fraction of the nth substance listed; details: 101.3 kPa, Liquid, Falling or rolling sphere viscometry

C1CCCCC1 [cyclohexane]
[1]
Details | mass density [kg/m3] | viscosity [mPa·s]
293.15 K | – | 0.976 ± 0.021
298.15 K | 773.8 ± 0.3 | 0.894 ± 0.021
303.15 K | – | 0.813 ± 0.021
313.15 K | – | 0.697 ± 0.021

CCOC(=O)OCC [diethyl carbonate]
[1]
Details | mass density [kg/m3] | viscosity [mPa·s]
293.15 K | – | 0.795 ± 0.021
298.15 K | 969.1 ± 0.3 | 0.749 ± 0.021
303.15 K | – | 0.699 ± 0.021
313.15 K | – | 0.623 ± 0.021

CCOC(=O)OCC [diethyl carbonate] + CCCCCCCC
[2]
Details | viscosity [mPa·s]
293.15 K, x1 = 0.0504 | 0.535 ± 0.021
293.15 K, x1 = 0.099 | 0.528 ± 0.021
293.15 K, x1 = 0.1947 | 0.529 ± 0.021
293.15 K, x1 = 0.2939 | 0.535 ± 0.021
293.15 K, x1 = 0.3911 | 0.55 ± 0.021
293.15 K, x1 = 0.4965 | 0.574 ± 0.021
293.15 K, x1 = 0.6012 | 0.604 ± 0.021
293.15 K, x1 = 0.6971 | 0.641 ± 0.021
293.15 K, x1 = 0.7996 | 0.684 ± 0.021
293.15 K, x1 = 0.8871 | 0.727 ± 0.021
293.15 K, x1 = 0.9502 | 0.763 ± 0.021
293.15 K, x1 = 1 | 0.795 ± 0.021
298.15 K, x1 = 0.0568 | 0.514 ± 0.021
298.15 K, x1 = 0.1069 | 0.51 ± 0.02
298.15 K, x1 = 0.1985 | 0.511 ± 0.02
298.15 K, x1 = 0.2979 | 0.515 ± 0.02
298.15 K, x1 = 0.3968 | 0.528 ± 0.02
298.15 K, x1 = 0.5035 | 0.551 ± 0.021
298.15 K, x1 = 0.605 | 0.578 ± 0.021
298.15 K, x1 = 0.7054 | 0.614 ± 0.021
298.15 K, x1 = 0.8042 | 0.653 ± 0.021
298.15 K, x1 = 0.9035 | 0.698 ± 0.021
298.15 K, x1 = 0.9549 | 0.728 ± 0.021
298.15 K, x1 = 1 | 0.749 ± 0.021
303.15 K, x1 = 0.0504 | 0.485 ± 0.02
303.15 K, x1 = 0.1002 | 0.485 ± 0.02
303.15 K, x1 = 0.2035 | 0.486 ± 0.02
303.15 K, x1 = 0.2953 | 0.494 ± 0.02
303.15 K, x1 = 0.3942 | 0.507 ± 0.02
303.15 K, x1 = 0.5035 | 0.525 ± 0.02
303.15 K, x1 = 0.6019 | 0.55 ± 0.02
303.15 K, x1 = 0.7055 | 0.58 ± 0.021
303.15 K, x1 = 0.8011 | 0.613 ± 0.021
303.15 K, x1 = 0.8999 | 0.654 ± 0.021
303.15 K, x1 = 0.9498 | 0.677 ± 0.021
303.15 K, x1 = 1 | 0.699 ± 0.021
313.15 K, x1 = 0.0495 | 0.436 ± 0.02
313.15 K, x1 = 0.0984 | 0.44 ± 0.02
313.15 K, x1 = 0.1957 | 0.448 ± 0.02
313.15 K, x1 = 0.2957 | 0.459 ± 0.02
313.15 K, x1 = 0.3958 | 0.472 ± 0.02
313.15 K, x1 = 0.4982 | 0.488 ± 0.02
313.15 K, x1 = 0.6036 | 0.508 ± 0.02
313.15 K, x1 = 0.6992 | 0.529 ± 0.02
313.15 K, x1 = 0.7994 | 0.554 ± 0.02
313.15 K, x1 = 0.8992 | 0.586 ± 0.021
313.15 K, x1 = 0.9502 | 0.608 ± 0.021
313.15 K, x1 = 1 | 0.623 ± 0.021

COC(=O)OC [dimethyl carbonate]
[1]
Details | mass density [kg/m3] | viscosity [mPa·s]
293.15 K | – | 0.626 ± 0.021
298.15 K | 1063.5 ± 0.6 | 0.585 ± 0.021
303.15 K | – | 0.536 ± 0.021
313.15 K | – | 0.494 ± 0.02

COC(=O)OC [dimethyl carbonate] + C1CCCCC1
[2]
Details | viscosity [mPa·s]
293.15 K, x1 = 0.0495 | 0.886 ± 0.021
293.15 K, x1 = 0.0987 | 0.814 ± 0.021
293.15 K, x1 = 0.2078 | 0.709 ± 0.021
293.15 K, x1 = 0.2961 | 0.66 ± 0.021
293.15 K, x1 = 0.3974 | 0.626 ± 0.021
293.15 K, x1 = 0.5014 | 0.608 ± 0.021
293.15 K, x1 = 0.6002 | 0.6 ± 0.021
293.15 K, x1 = 0.7028 | 0.593 ± 0.021
293.15 K, x1 = 0.7994 | 0.59 ± 0.021
293.15 K, x1 = 0.9017 | 0.597 ± 0.021
293.15 K, x1 = 0.9513 | 0.609 ± 0.021
293.15 K, x1 = 1 | 0.626 ± 0.021
298.15 K, x1 = 0.0378 | 0.833 ± 0.021
298.15 K, x1 = 0.0808 | 0.776 ± 0.021
298.15 K, x1 = 0.1764 | 0.681 ± 0.021
298.15 K, x1 = 0.2896 | 0.619 ± 0.021
298.15 K, x1 = 0.388 | 0.587 ± 0.021
298.15 K, x1 = 0.4938 | 0.567 ± 0.021
298.15 K, x1 = 0.5908 | 0.557 ± 0.021
298.15 K, x1 = 0.6864 | 0.553 ± 0.021
298.15 K, x1 = 0.7918 | 0.555 ± 0.021
298.15 K, x1 = 0.8976 | 0.561 ± 0.021
298.15 K, x1 = 0.9503 | 0.572 ± 0.021
298.15 K, x1 = 1 | 0.585 ± 0.021
303.15 K, x1 = 0.0391 | 0.758 ± 0.021
303.15 K, x1 = 0.0931 | 0.703 ± 0.021
303.15 K, x1 = 0.1875 | 0.632 ± 0.021
303.15 K, x1 = 0.2908 | 0.581 ± 0.021
303.15 K, x1 = 0.3897 | 0.545 ± 0.02
303.15 K, x1 = 0.4962 | 0.522 ± 0.02
303.15 K, x1 = 0.5958 | 0.508 ± 0.02
303.15 K, x1 = 0.6909 | 0.504 ± 0.02
303.15 K, x1 = 0.7975 | 0.507 ± 0.02
303.15 K, x1 = 0.8912 | 0.522 ± 0.021
303.15 K, x1 = 0.9441 | 0.528 ± 0.021
303.15 K, x1 = 1 | 0.536 ± 0.021
313.15 K, x1 = 0.101 | 0.605 ± 0.021
313.15 K, x1 = 0.1482 | 0.574 ± 0.02
313.15 K, x1 = 0.2563 | 0.524 ± 0.02
313.15 K, x1 = 0.3646 | 0.495 ± 0.02
313.15 K, x1 = 0.4661 | 0.477 ± 0.02
313.15 K, x1 = 0.572 | 0.468 ± 0.02
313.15 K, x1 = 0.6633 | 0.465 ± 0.02
313.15 K, x1 = 0.7699 | 0.47 ± 0.02
313.15 K, x1 = 0.8688 | 0.479 ± 0.02
313.15 K, x1 = 0.9757 | 0.491 ± 0.02
313.15 K, x1 = 0.9935 | 0.493 ± 0.02
313.15 K, x1 = 1 | 0.494 ± 0.02

COC(=O)OC [dimethyl carbonate] + CCCCCC
[2]
Details | viscosity [mPa·s]
293.15 K, x1 = 0.0722 | 0.312 ± 0.02
293.15 K, x1 = 0.1448 | 0.315 ± 0.02
293.15 K, x1 = 0.2286 | 0.325 ± 0.02
293.15 K, x1 = 0.3026 | 0.338 ± 0.02
293.15 K, x1 = 0.4102 | 0.359 ± 0.02
293.15 K, x1 = 0.5062 | 0.384 ± 0.02
293.15 K, x1 = 0.6026 | 0.412 ± 0.02
293.15 K, x1 = 0.7052 | 0.451 ± 0.02
293.15 K, x1 = 0.7974 | 0.494 ± 0.02
293.15 K, x1 = 0.901 | 0.552 ± 0.021
293.15 K, x1 = 0.9506 | 0.585 ± 0.021
293.15 K, x1 = 1 | 0.626 ± 0.021
298.15 K, x1 = 0.082 | 0.306 ± 0.02
298.15 K, x1 = 0.1269 | 0.311 ± 0.02
298.15 K, x1 = 0.2131 | 0.322 ± 0.02
298.15 K, x1 = 0.3197 | 0.336 ± 0.02
298.15 K, x1 = 0.3787 | 0.345 ± 0.02
298.15 K, x1 = 0.4712 | 0.362 ± 0.02
298.15 K, x1 = 0.5121 | 0.37 ± 0.02
298.15 K, x1 = 0.6067 | 0.392 ± 0.02
298.15 K, x1 = 0.6987 | 0.423 ± 0.02
298.15 K, x1 = 0.842 | 0.487 ± 0.02
298.15 K, x1 = 0.9248 | 0.53 ± 0.021
298.15 K, x1 = 0.9615 | 0.555 ± 0.021
298.15 K, x1 = 1 | 0.585 ± 0.021
303.15 K, x1 = 0.0468 | 0.287 ± 0.02
303.15 K, x1 = 0.0991 | 0.293 ± 0.02
303.15 K, x1 = 0.1951 | 0.305 ± 0.02
303.15 K, x1 = 0.295 | 0.314 ± 0.02
303.15 K, x1 = 0.3832 | 0.327 ± 0.02
303.15 K, x1 = 0.4865 | 0.342 ± 0.02
303.15 K, x1 = 0.5899 | 0.363 ± 0.02
303.15 K, x1 = 0.696 | 0.394 ± 0.02
303.15 K, x1 = 0.7947 | 0.433 ± 0.02
303.15 K, x1 = 0.8939 | 0.478 ± 0.02
303.15 K, x1 = 0.9436 | 0.507 ± 0.02
303.15 K, x1 = 1 | 0.536 ± 0.021
313.15 K, x1 = 0.0495 | 0.267 ± 0.02
313.15 K, x1 = 0.1 | 0.274 ± 0.02
313.15 K, x1 = 0.2092 | 0.286 ± 0.02
313.15 K, x1 = 0.3093 | 0.296 ± 0.02
313.15 K, x1 = 0.4043 | 0.306 ± 0.02
313.15 K, x1 = 0.4941 | 0.321 ± 0.02
313.15 K, x1 = 0.6052 | 0.347 ± 0.02
313.15 K, x1 = 0.7063 | 0.379 ± 0.02
313.15 K, x1 = 0.8046 | 0.416 ± 0.02
313.15 K, x1 = 0.9014 | 0.458 ± 0.02
313.15 K, x1 = 0.9497 | 0.477 ± 0.02
313.15 K, x1 = 1 | 0.494 ± 0.02
